From patent publication US9738655B2, “Tetrahydroisoquinolines containing substituted azoles as factor XIa inhibitors” (BRISTOL-MYERS SQUIBB COMPANY, priority 2013, dated 2017)
Counter-ions that a name gives are not always drawn. Like-named read-outs stand apart in the source and are kept apart here.

Key:
[1] = biological target: purified human Factor XIa (Homo sapiens (Human), UniProt P03951); experiment: Factor XIa enzyme inhibition assay (chromogenic substrate S-2366)
[2] = biological target: purified human plasma kallikrein (Homo sapiens (Human), UniProt P03952); experiment: Plasma kallikrein enzyme inhibition assay (chromogenic substrate S-2302); type: biochemical
purified human plasma kallikrein, sequence (P03952 391-638): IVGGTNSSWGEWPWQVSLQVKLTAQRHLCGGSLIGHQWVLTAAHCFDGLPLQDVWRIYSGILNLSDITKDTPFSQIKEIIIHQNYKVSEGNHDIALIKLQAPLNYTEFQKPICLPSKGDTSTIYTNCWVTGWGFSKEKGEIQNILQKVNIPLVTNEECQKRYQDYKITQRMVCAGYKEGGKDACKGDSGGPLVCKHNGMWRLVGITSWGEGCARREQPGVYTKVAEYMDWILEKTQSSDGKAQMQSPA
purified human plasma kallikrein, sequence (P03952 20-390 partner): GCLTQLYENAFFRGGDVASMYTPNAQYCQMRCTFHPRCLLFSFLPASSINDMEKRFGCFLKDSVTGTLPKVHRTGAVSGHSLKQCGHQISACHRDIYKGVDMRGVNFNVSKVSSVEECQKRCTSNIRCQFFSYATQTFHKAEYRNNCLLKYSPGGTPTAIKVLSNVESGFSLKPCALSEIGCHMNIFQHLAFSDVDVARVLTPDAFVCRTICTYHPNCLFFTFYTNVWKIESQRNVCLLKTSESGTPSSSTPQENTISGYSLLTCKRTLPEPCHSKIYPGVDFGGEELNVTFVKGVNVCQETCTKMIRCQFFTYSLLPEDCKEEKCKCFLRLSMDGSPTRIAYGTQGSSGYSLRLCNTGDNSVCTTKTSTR

[3] = read-out: Factor XIa Ki, measured at 25° C.
[4] = measured at 25° C. (no asterisk)

purified human Factor XIa, sequence (P03951 388-625): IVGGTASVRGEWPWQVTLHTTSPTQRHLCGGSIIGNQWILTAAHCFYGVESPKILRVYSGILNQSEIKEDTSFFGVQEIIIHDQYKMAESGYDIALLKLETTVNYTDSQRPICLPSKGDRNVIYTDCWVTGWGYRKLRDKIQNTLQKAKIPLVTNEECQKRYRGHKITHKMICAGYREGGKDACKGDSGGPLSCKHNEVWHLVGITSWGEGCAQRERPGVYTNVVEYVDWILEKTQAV
purified human Factor XIa, sequence (P03951 19-387 partner): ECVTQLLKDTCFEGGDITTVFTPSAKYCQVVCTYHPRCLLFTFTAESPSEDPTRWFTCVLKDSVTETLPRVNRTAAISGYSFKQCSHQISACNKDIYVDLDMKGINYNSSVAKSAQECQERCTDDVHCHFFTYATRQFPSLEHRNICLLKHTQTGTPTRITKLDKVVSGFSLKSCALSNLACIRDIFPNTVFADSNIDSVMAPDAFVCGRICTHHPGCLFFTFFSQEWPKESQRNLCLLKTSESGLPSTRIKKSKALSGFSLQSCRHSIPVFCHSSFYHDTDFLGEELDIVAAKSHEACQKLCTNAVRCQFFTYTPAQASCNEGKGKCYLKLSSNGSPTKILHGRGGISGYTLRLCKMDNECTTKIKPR

Row | SMILES | Ki [1, 3] | Ki ([2]; measured at 37° C. (*)) | Ki [2, 4] | Ki [1]
1 | COC1CCN(c2cccc3c2CCN(C(=O)c2cnn(-c4cccc(Cl)c4)c2C(F)(F)F)C3C(=O)Nc2ccc(C(=O)O)cc2)CC1 (stereo not shown) [Example 150, 4-(2-(1-(3-chlorophenyl)-5-(trifluoromethyl)-1H-pyrazole-4-carbonyl)-5-(4-methoxypiperidin-1-yl)-1,2,3,4-tetrahydroisoquinoline-1-carboxamido)benzoic acid, TFA salt] | 2600 nM | > 6000 nM |  | 
2 | COc1ncccc1-c1cccc2c1CCN(C(=O)c1cn(-c3cccc(Cl)c3F)nn1)C2C(=O)Nc1ccc(C(=O)O)cc1 (stereo not shown) [Example 153, 4-(2-(1-(3-chloro-2-fluorophenyl)-1H-1,2,3-triazole-4-carbonyl)-5-(2-methoxypyridin-3-yl)-1,2,3,4-tetrahydroisoquinoline-1-carboxamido)benzoic acid, TFA salt] | 5.73 nM |  | 62.2 nM | 
3 | CN(C)Cc1ccc(-c2cccc3c2CCN(C(=O)c2cn(-c4cccc(Cl)c4F)nn2)C3C(=O)Nc2ccc(C(=O)O)cc2)cc1 (stereo not shown) [Example 154, 4-(2-(1-(3-chloro-2-fluorophenyl)-1H-1,2,3-triazole-4-carbonyl)-5-(4-((dimethylamino)methyl)phenyl)-1,2,3,4-tetrahydroisoquinoline-1-carboxamido)benzoic acid, TFA salt] | < 5 nM |  | 5.26 nM | 
4 | NS(=O)(=O)c1cccc(-c2cccc3c2CCN(C(=O)c2cn(-c4cccc(Cl)c4F)nn2)C3C(=O)Nc2ccc(C(=O)O)cc2)c1 (stereo not shown) [Example 155, 4-(2-(1-(3-chloro-2-fluorophenyl)-1H-1,2,3-triazole-4-carbonyl)-5-(3-sulfamoylphenyl)-1,2,3,4-tetrahydroisoquinoline-1-carboxamido)benzoic acid] | < 5 nM |  | 23.9 nM | 
5 | Cn1ncc2cc(-c3cccc4c3CCN(C(=O)c3cn(-c5cccc(Cl)c5F)nn3)C4C(=O)Nc3ccc(C(=O)O)cc3)ccc21 (stereo not shown) [Example 156, 4-(2-(1-(3-chloro-2-fluorophenyl)-1H-1,2,3-triazole-4-carbonyl)-5-(1-methyl-1H-indazol-5-yl)-1,2,3,4-tetrahydroisoquinoline-1-carboxamido)benzoic acid] | < 5 nM |  | 30.1 nM | 
6 | O=C(O)c1ccc(NC(=O)C2c3cccc(-c4ccc5c(c4)OCO5)c3CCN2C(=O)c2cn(-c3cccc(Cl)c3F)nn2)cc1 (stereo not shown) [Example 157, 4-(5-(benzo[d][1,3]dioxol-5-yl)-2-(1-(3-chloro-2-fluorophenyl)-1H-1,2,3-triazole-4-carbonyl)-1,2,3,4-tetrahydroisoquinoline-1-carboxamido)benzoic acid] | < 5 nM |  | 29.5 nM | 
7 | O=C(O)c1ccc(NC(=O)C2c3cccc(-c4cnoc4)c3CCN2C(=O)c2cn(-c3cccc(Cl)c3F)nn2)cc1 (stereo not shown) [Example 159, 4-(2-(1-(3-chloro-2-fluorophenyl)-1H-1,2,3-triazole-4-carbonyl)-5-(isoxazol-4-yl)-1,2,3,4-tetrahydroisoquinoline-1-carboxamido)benzoic acid] | 13.2 nM |  | 21.9 nM | 
8 | O=C(O)c1ccc(NC(=O)C2c3cccc(-c4ccc5cn[nH]c5c4)c3CCN2C(=O)c2cn(-c3cccc(Cl)c3F)nn2)cc1 (stereo not shown) [Example 161, 4-(2-(1-(3-chloro-2-fluorophenyl)-1H-1,2,3-triazole-4-carbonyl)-5-(1H-indazol-6-yl)-1,2,3,4-tetrahydroisoquinoline-1-carboxamido)benzoic acid] | < 5 nM |  | 2.46 nM | 
9 | Cn1cc2ccc(-c3cccc4c3CCN(C(=O)c3cn(-c5cccc(Cl)c5F)nn3)C4C(=O)Nc3ccc(C(=O)O)cc3)cc2n1 (stereo not shown) [Example 162, 4-(2-(1-(3-chloro-2-fluorophenyl)-1H-1,2,3-triazole-4-carbonyl)-5-(2-methyl-2H-indazol-6-yl)-1,2,3,4-tetrahydroisoquinoline-1-carboxamido)benzoic acid] | < 5 nM |  | 49.9 nM | 
10 | COC1CCN(c2cccc3c2CCN(C(=O)c2cn(-c4cccc(Cl)c4F)nn2)C3C(=O)Nc2ccc3c(c2)CCC(=O)N3C)CC1 (stereo not shown) [Example 189, 2-(1-(3-Chloro-2-fluorophenyl)-1H-1,2,3-triazole-4-carbonyl)-5-(4-methoxypiperidin-1-yl)-N-(1-methyl-2-oxo-1,2,3,4-tetrahydroquinolin-6-yl)-1,2,3,4-tetrahydroisoquinoline-1-carboxamide, TFA salt] | 411 nM |  | 540 nM | 
11 | COC1CCN(c2cccc3c2CCN(C(=O)c2cn(-c4cccc(Cl)c4F)nn2)C3C(=O)Nc2ccc3c(c2)CC(=O)N3)CC1 (stereo not shown) [Example 190, 2-(1-(3-Chloro-2-fluorophenyl)-1H-1,2,3-triazole-4-carbonyl)-5-(4-methoxypiperidin-1-yl)-N-(2-oxoindolin-5-yl)-1,2,3,4-tetrahydroisoquinoline-1-carboxamide, TFA salt] | 98.1 nM |  | 163 nM | 
12 | CC(=O)Nc1cccc2c1CCN(C(=O)c1cn(-c3cccc(Cl)c3F)nn1)C2C(=O)Nc1ccc(C(=O)O)cc1 (stereo not shown) [Example 191, 4-(5-Acetamido-2-(1-(3-chloro-2-fluorophenyl)-1H-1,2,3-triazole-4-carbonyl)-1,2,3,4-tetrahydroisoquinoline-1-carboxamido)benzoic acid] | 13.4 nM |  | 12.3 nM | 
13 | CN1CCC(NC(=O)c2cccc3c2CCN(C(=O)c2cn(-c4cccc(Cl)c4F)nn2)C3C(=O)Nc2ccc(C(=O)O)cc2)CC1 (stereo not shown) [Example 192, 4-(2-(1-(3-Chloro-2-fluorophenyl)-1H-1,2,3-triazole-4-carbonyl)-5-((1-methylpiperidin-4-yl)carbamoyl)-1,2,3,4-tetrahydroisoquinoline-1-carboxamido)benzoic acid, TFA salt] | 9.97 nM |  | 55.6 nM | 
14 | O=C(Nc1cccc2c1CCN(C(=O)c1cn(-c3cccc(Cl)c3F)nn1)C2C(=O)Nc1ccc(C(=O)O)cc1)NC1CCCC1 (stereo not shown) [Example 193, 4-(2-(1-(3-Chloro-2-fluorophenyl)-1H-1,2,3-triazole-4-carbonyl)-5-(3-cyclopentylureido)-1,2,3,4-tetrahydroisoquinoline-1-carboxamido)benzoic acid] | 19.9 nM |  | 2.34 nM | 
15 | O=C(O)c1ccc(NC(=O)C2c3cccc(Cl)c3CCN2C(=O)c2cn(-c3cccc(Cl)c3F)nn2)cc1 (stereo not shown) [Example 194, 4-(5-Chloro-2-(1-(3-chloro-2-fluorophenyl)-1H-1,2,3-triazole-4-carbonyl)-1,2,3,4-tetrahydroisoquinoline-1-carboxamido)benzoic acid] |  |  | 41.5 nM | 57.1 nM
16 | O=C(O)c1ccc(NC(=O)C2c3cccc(F)c3CCN2C(=O)c2cn(-c3cccc(Cl)c3F)nn2)cc1 (stereo not shown) [Example 195, 4-(2-(1-(3-Chloro-2-fluorophenyl)-1H-1,2,3-triazole-4-carbonyl)-5-fluoro-1,2,3,4-tetrahydroisoquinoline-1-carboxamido)benzoic acid] | 40.1 nM |  | 30.9 nM | 
17 | O=C(O)c1ccc(NC(=O)C2c3cccc(N4CC[C@H](O)C4=O)c3CCN2C(=O)c2cn(-c3cccc(Cl)c3F)nn2)cc1 (stereo partly drawn) [Example 196, 4-(2-(1-(3-Chloro-2-fluorophenyl)-1H-1,2,3-triazole-4-carbonyl)-5-((S)-3-hydroxy-2-oxopyrrolidin-1-yl)-1,2,3,4-tetrahydroisoquinoline-1-carboxamido)benzoic acid, TFA salt] | 7.1 nM |  | 11.9 nM | 
18 | O=C(O)c1ccc(NC(=O)C2c3cccc(N4CCN(CC(F)(F)F)CC4=O)c3CCN2C(=O)c2cn(-c3cccc(Cl)c3F)nn2)cc1 (stereo not shown) [Example 197, 4-(2-(1-(3-Chloro-2-fluorophenyl)-1H-1,2,3-triazole-4-carbonyl)-5-(2-oxo-4-(2,2,2-trifluoroethyl)piperazin-1-yl)-1,2,3,4-tetrahydroisoquinoline-1-carboxamido)benzoic acid, TFA salt] | < 5 nM |  | 10 nM | 
19 | CN1CCN(c2cccc3c2CCN(C(=O)c2cc(-c4cccc(Cl)c4)no2)C3C(=O)Nc2ccc(C(=O)O)cc2)CC1 (stereo not shown) [Example 198, 4-(2-(3-(3-chlorophenyl)isoxazole-5-carbonyl)-5-(4-methylpiperazin-1-yl)-1,2,3,4-tetrahydroisoquinoline-1-carboxamido)benzoic acid, 2 TFA salt] | 49.5 nM |  | 122 nM | 
20 | CN1CCN(c2cccc3c2CCN(C(=O)c2cn(-c4cccc(Cl)c4)nc2C(F)(F)F)C3C(=O)Nc2ccc(C(=O)O)cc2)CC1 (stereo not shown) [Example 199, 4-(2-(1-(3-chlorophenyl)-3-(trifluoromethyl)-1H-pyrazole-4-carbonyl)-5-(4-methylpiperazin-1-yl)-1,2,3,4-tetrahydroisoquinoline-1-carboxamido)benzoic acid, 2 TFA salt] | 2300 nM | > 6000 nM |  | 
21 | CN1CCN(c2cccc3c2CCN(C(=O)c2cnn(-c4cccc(Cl)c4)c2)C3C(=O)Nc2ccc(C(=O)O)cc2)CC1 (stereo not shown) [Example 200, 4-(2-(1-(3-chlorophenyl)-1H-pyrazole-4-carbonyl)-5-(4-methylpiperazin-1-yl)-1,2,3,4-tetrahydroisoquinoline-1-carboxamido)benzoic acid, 2 TFA salt] | 41.7 nM |  | 10.7 nM | 
22 | CN1CCN(c2cccc3c2CCN(C(=O)c2cn(-c4cccc(Cl)c4)nn2)C3C(=O)Nc2ccc(C(=O)O)cc2)CC1 (stereo not shown) [Example 201, 4-(2-(1-(3-chlorophenyl)-1H-1,2,3-triazole-4-carbonyl)-5-(4-methylpiperazin-1-yl)-1,2,3,4-tetrahydroisoquinoline-1-carboxamido)benzoic acid, 2 TFA salt] | 9.88 nM |  | 4.21 nM | 
23 | CN1CCN(c2cccc3c2CCN(C(=O)C2CC(c4c(F)ccc(Cl)c4F)=NO2)C3C(=O)Nc2ccc(C(=O)O)cc2)CC1 (stereo not shown) [Example 205, 4-(2-(3-(3-chloro-2,6-difluorophenyl)-4,5-dihydroisoxazole-5-carbonyl)-5-(4-methylpiperazin-1-yl)-1,2,3,4-tetrahydroisoquinoline-1-carboxamido)benzoic acid, 2 TFA salt] | < 5 nM |  | 0.64 nM | 
